Data set [1] addresses T1, recombinant human MAO-B (Homo sapiens, UniProt P27338).
T1 construct: purchased Sigma-Aldrich; host or cells: insect cells (microsomes)
T1 sequence (P27338 1-520): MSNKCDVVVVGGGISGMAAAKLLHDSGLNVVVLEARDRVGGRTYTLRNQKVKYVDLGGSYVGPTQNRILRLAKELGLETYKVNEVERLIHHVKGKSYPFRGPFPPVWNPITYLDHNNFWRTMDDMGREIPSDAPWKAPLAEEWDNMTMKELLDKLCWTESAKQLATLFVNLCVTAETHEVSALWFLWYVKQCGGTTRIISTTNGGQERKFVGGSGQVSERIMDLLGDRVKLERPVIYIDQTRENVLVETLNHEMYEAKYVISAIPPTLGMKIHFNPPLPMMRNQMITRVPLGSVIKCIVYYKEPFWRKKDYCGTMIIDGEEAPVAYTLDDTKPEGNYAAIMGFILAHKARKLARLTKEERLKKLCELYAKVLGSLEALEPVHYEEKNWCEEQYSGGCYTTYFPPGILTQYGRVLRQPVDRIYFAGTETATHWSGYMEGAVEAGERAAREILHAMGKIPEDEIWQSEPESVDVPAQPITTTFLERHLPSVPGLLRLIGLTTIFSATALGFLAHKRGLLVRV
Nature of the data set: MAO-B inhibition, IC50 determination with kynuramine as substrate (fluorescence of 4-hydroxyquinoline). Type of data set: biochemical. The conditions noted are these: for SI (selectivity index): SI = IC50(MAO-A)/IC50(MAO-B); for IC50: recombinant human MAO-B, 50 µM kynuramine, mean ± SD of triplicate, NI = no inhibition observed at 100 µM. As to the method:
(§1) The MAO inhibition properties of the 2,1-benzisoxazole derivatives were investigated using the commercially available recombinant human MAO-A and MAO-B enzymes with kynuramine serving as substrate. MAO oxidizes kynuramine to yield 4-hydroxyquinoline, which was measured by fluorescence spectrophotometry.
(§2) For the MAO inhibition studies, a Varian Cary Eclipse fluorescence spectrophotometer was employed. Microsomes from insect cells containing recombinant human MAO-A and MAO-B (5 mg protein/mL) and kynuramine dihydrobromide were obtained from Sigma-Aldrich.
IC50 values for the inhibition of MAO were measured as described previously. Microsomes from insect cells containing recombinant human MAO-A and MAO-B (5 mg protein/mL) served as enzyme sources (Sigma-Aldrich) while kynuramine was used as non-specific MAO substrate. The enzyme reactions (200 µL reactions prepared in 96-well microtiter plates) contained phosphate buffer (100 mM, pH 7.4), 50 µM kynuramine and the test inhibitors at concentrations of 0.003–100 µM. […] The concentration of 4-hydroxyquinoline, the product of kynuramine oxidation by MAO, was measured by fluorescence spectrophotometry (λex = 310 nm; λem = 400 nm). IC50 values were estimated from sigmoidal plots of enzyme catalytic rate versus the inhibitor concentration (log[I]) which were constructed with the Prism software package (GraphPad). IC50 values were estimated in triplicate determinations from these plots and are expressed as mean ± standard deviation (SD).

The target in data set [2] is T2, recombinant human MAO-A (Homo sapiens, UniProt P21397).
T2 construct: purchased Sigma-Aldrich; host or cells: insect cells (microsomes)
T2 sequence (P21397 1-527): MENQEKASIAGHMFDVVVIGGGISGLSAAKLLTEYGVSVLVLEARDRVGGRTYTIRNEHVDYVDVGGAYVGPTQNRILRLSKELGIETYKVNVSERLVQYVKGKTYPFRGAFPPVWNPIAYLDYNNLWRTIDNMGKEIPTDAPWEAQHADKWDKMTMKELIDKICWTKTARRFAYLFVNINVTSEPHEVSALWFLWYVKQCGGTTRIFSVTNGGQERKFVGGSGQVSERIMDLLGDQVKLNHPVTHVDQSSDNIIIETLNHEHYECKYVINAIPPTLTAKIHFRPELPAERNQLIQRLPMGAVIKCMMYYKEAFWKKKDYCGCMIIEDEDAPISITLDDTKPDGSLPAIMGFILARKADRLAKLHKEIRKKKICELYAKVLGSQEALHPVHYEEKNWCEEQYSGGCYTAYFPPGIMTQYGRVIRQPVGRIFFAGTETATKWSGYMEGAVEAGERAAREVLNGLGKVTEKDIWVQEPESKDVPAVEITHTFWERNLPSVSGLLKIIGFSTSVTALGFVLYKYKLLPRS
The data set can be described thus: Lineweaver–Burk plots / mode of MAO-A inhibition and Ki. It is filed as biochemical. As for the experimental part:
(§3) These two compounds represent potent MAO inhibitors among the study compounds. […] Each line of the Lineweaver–Burk plots was constructed with the kynuramine concentration ranging from 15 to 250 μM.
(§4) The insets are replots of the slopes of the Lineweaver–Burk plots versus inhibitor concentration. The Ki value equals the negative of the x-axis intercept when y = 0
(§5) IC50 values for the inhibition of MAO were measured as described previously. Microsomes from insect cells containing recombinant human MAO-A and MAO-B (5 mg protein/mL) served as enzyme sources (Sigma-Aldrich) while kynuramine was used as non-specific MAO substrate. The enzyme reactions (200 µL reactions prepared in 96-well microtiter plates) contained phosphate buffer (100 mM, pH 7.4), 50 µM kynuramine and the test inhibitors at concentrations of 0.003–100 µM. Stock solutions of the test inhibitors were dissolved in DMSO and added to the enzyme reactions to give a final DMSO concentration of 4% (v/v). The reactions were initiated with addition of MAO-A (0.0075 mg protein/mL) or MAO-B (0.015 mg protein/mL) and after 20 min of incubation at 37 °C, the reactions were terminated by the addition of 80 µL NaOH (2 N). The concentration of 4-hydroxyquinoline, the product of kynuramine oxidation by MAO, was measured by fluorescence spectrophotometry (λex = 310 nm; λem = 400 nm). IC50 values were estimated from sigmoidal plots of enzyme catalytic rate versus the inhibitor concentration (log[I]) which were constructed with the Prism software package (GraphPad). IC50 values were estimated in triplicate determinations from these plots and are expressed as mean ± standard deviation (SD).
(§6) For each line, the concentration of kynuramine ranged from 15–250 µM.

The target of data set [3] is T2, recombinant human MAO-A. Nature of the data set: MAO-A inhibition, IC50 determination with kynuramine as substrate (fluorescence of 4-hydroxyquinoline). It is filed as biochemical. The conditions noted are these: 50 µM kynuramine, mean ± SD of triplicate, NI = no inhibition observed at 100 µM. As to the method: as §1, §2
as §5, with “Stock solutions of the test inhibitors were dissolved in DMSO and added to the enzyme reactions to give a final DMSO concentration of 4% (v/v).” left out

The target in another data set is human MAO-B. Details: method as in PMID 21175212. The conditions noted are these: competitive inhibitor; cited from earlier work.
The target in data set [4] is T1, recombinant human MAO-B. The data set can be described thus: Lineweaver–Burk plots / mode of MAO-B inhibition and Ki. Type of data set: biochemical. As for the experimental part: as §3, §4, §5, §6
Setting [5] is: Lineweaver–Burk lines intersect on the y-axis.

“And” between values parts separate entries of the source, which are not always exact repeats. Equal entries are not always repeated. Where two headings read alike, the source gives them in different places.

As usually defined, the IC50 is the concentration that gives 50% inhibition. Usually Ki stands for the dissociation constant of the complex between target and ligand, obtained from inhibition or displacement. The melting point is the temperature, or range, at which the solid turns liquid. On to `c1ccc(-c2onc3ccc(C4OCCO4)cc23)cc1` [Compound 3l, 5-(1,3-Dioxolan-2-yl)-3-phenylbenzo[c]isoxazole], for which the melting point was in the range of 137 to 138 °C. Further, on recombinant human MAO-B [1], the “SI (selectivity index)” value turned out to be 0.20 and the IC50 came out at 27.3 ± 2.16 µM. Moreover, the “mode of MAO-A inhibition” value at recombinant human MAO-A [2] (setting [5]) is given as “competitive”. For the same molecule, at recombinant human MAO-A [2] (global (shared) fitting of the inhibition data, read-out: Ki, MAO-A, global (shared) fitting to the Michaelis–Menten equation), the Ki turned out to be 0.5 ± 0.024 µM. Besides, at recombinant human MAO-A [2] (replot of slopes versus inhibitor concentration, Ki = −x when y = 0, kynuramine 15–250 µM, read-out: Ki, MAO-A, from replot of slopes of Lineweaver–Burk plots), the Ki worked out at 0.46 µM. The IC50 on recombinant human MAO-A [3] stood at 5.35 ± 0.211 µM.
In the case of `NS(=O)(=O)Cc1noc2ccccc12` [Zonisamide, zonisamide], the Ki on human MAO-B is 3.1 µM.
`N#Cc1ccc(-c2onc3c(Cl)cc(Cl)cc23)cc1` [Compound 7a, 4-(5,7-Dichlorobenzo[c]isoxazol-3-yl)benzonitrile]: the melting point was 240 to 241 °C. In addition, at recombinant human MAO-B [1], the “SI (selectivity index)” value came out at 1138 and the IC50 is 0.017 ± 0.0045 µM. On recombinant human MAO-B [4] (setting [5]), the “mode of MAO-B inhibition” value is given as “competitive”. The inhibition constant Ki at recombinant human MAO-B [4] (global (shared) fitting of the inhibition data, read-out: Ki, MAO-B, global (shared) fitting to the Michaelis–Menten equation) came to 0.01 ± 0.0015 µM. Besides, the Ki on recombinant human MAO-B [4] (replot of slopes versus inhibitor concentration, Ki = −x when y = 0, kynuramine 15–250 µM, read-out: Ki, MAO-B, from replot of slopes of Lineweaver–Burk plots) amounted to 0.0062 µM. Moreover, the IC50 on recombinant human MAO-A [3] came out at 19 ± 1.2 µM.
The molecule `Cc1nc(-c2cc3noc(-c4ccc(C#N)cc4)c3cc2Cl)no1` [Compound 7c, 4-(5-Chloro-6-(5-methyl-1,2,4-oxadiazol-3-yl)benzo[c]isoxazol-3-yl)benzonitrile] had a melting point of 257 to 258 °C. For the same molecule, on recombinant human MAO-B [1], the IC50 worked out at 0.139 ± 0.044 µM. The IC50 on recombinant human MAO-A [3] was greater than 100 µM.
In turn, `Cc1ccc(-c2onc3ccc(I)cc23)cc1` [Compound 3i, 5-Iodo-3-(p-tolyl)benzo[c]isoxazole] had a melting point of 109 to 110 °C. In addition, on recombinant human MAO-B [1], the “SI (selectivity index)” value stood at 13; the IC50 was < 6.59 µM and 3.49 µM. Also, the IC50 at recombinant human MAO-A [3] stood at 43.9 ± 11.3 µM.
Molecule `COc1ccc(-c2onc3ccc(I)cc23)cc1` [Compound 3a, 5-Iodo-3-(4-methoxyphenyl)benzo[c]isoxazole] had a melting point of 112 to 114 °C. On recombinant human MAO-B [1], the “SI (selectivity index)” value is on record as 6.4; the IC50 was < 6.59 µM and 3.03 µM. For the same molecule, the IC50 at recombinant human MAO-A [3] is 19.4 ± 2.58 µM.
For the molecule `COc1ccc(-c2onc3ccc(Cl)cc23)cc1` [Compound 3o, 5-Chloro-3-(4-methoxyphenyl)benzo[c]isoxazole], the melting point is 174 °C. Moreover, at recombinant human MAO-B [1], the “SI (selectivity index)” value turned out to be 3.6 and the IC50 stood at 2.34 ± 0.055 µM. Besides, the IC50 at recombinant human MAO-A [3] turned out to be 8.49 ± 0.017 µM.

The values above are taken from article PMC11269473, “Monoamine oxidase inhibition properties of 2,1-benzisoxazole derivatives” (Molecular Diversity, 2023).
